Assay results from patent US11377441B2, “Covalent inhibitors of KRAS” (Araxes Pharma LLC, priority 2017, dated 2022).

The compounds below were run against T1, KRAS G12C 1-169, his-tagged protein, GDP-loaded (Homo sapiens, UniProt P01116, G12C) (assay: Biochemical assay: covalent modification of KRAS G12C measured by mass spectrometry (RapidFire/TOF or Q-Exactive)). Conditions: covalent binding to (modification of) KRAS G12C after a ten minute incubation period.
T1 construct: KRAS G12C 1-169, his-tagged protein, GDP-loaded
Type: binding
How it was run: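 GDP-loaded KRAS G12C 1-169 (his-tagged) at 2 μM or 0.5 μM in 20 mM Hepes, 150 mM NaCl, 1 mM MgCl2, incubated with compound at 100, 30 or 10 μM at room temperature for 10 min, 30 min, 2 h or 24 h, then quenched with formic acid. Intact-protein LC-MS, deconvolved; percent modification from modified versus unmodified protein.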

**Q.** Which Binding % does the source give for `C=CC(=O)N1C[C@H](C)N(c2nc(O[C@H](C)CN(C)C)nc3c(F)c(-c4c(C)ccc5cnn(C)c45)c(Cl)cc23)C[C@H]1C` [Compound 230, 1-((2R,5S)-4-(6-chloro-7-(1,6-dimethyl-1H-indazol-7-yl)-2-((R)-1-(dimethylamino)propan-2-yloxy)-8-fluoroquinazolin-4-yl)-2,5-dimethylpiperazin-1-yl)prop-2-en-1-one] here?
**A.** ++ (++ indicates binding activity from 50 to 80%)

**Q.** `C=CC(=O)N1C[C@H](C)N(c2nc(O[C@H](C)CN(C)C)nc3c(F)c(-c4c(C)ccc5[nH]nc(C6CC6)c45)c(Cl)cc23)C[C@H]1C` [Compound 231, 1-((2R,5S)-4-(6-chloro-7-(3-cyclopropyl-5-methyl-1H-indazol-4-yl)-2-((R)-1-(dimethylamino)propan-2-yloxy)-8-fluoroquinazolin-4-yl)-2,5-dimethylpiperazin-1-yl)prop-2-en-1-one] was tested. Which Binding % did it give?
**A.** ++ (++ indicates binding activity from 50 to 80%)

**Q.** Which Binding % does the source give for `C=CC(=O)N1C[C@H](C)N(c2nc(O[C@H](C)CN(C)C)nc3c(F)c(-c4c(C)ccc5[nH]nc(C)c45)c(Cl)cc23)C[C@H]1C` [Compound 232, 1-((2R,5S)-4-(6-chloro-7-(3,5-dimethyl-1H-indazol-4-yl)-2-((R)-1-(dimethylamino)propan-2-yloxy)-8-fluoroquinazolin-4-yl)-2,5-dimethylpiperazin-1-yl)prop-2-en-1-one] here?
**A.** ++ (++ indicates binding activity from 50 to 80%)

**Q.** How did the Binding % turn out when `C=CC(=O)N1C[C@H](C)N(c2nc(C#CCN(C)C)nc3c(F)c(-c4c(C)ccc5cnn(C)c45)c(Cl)cc23)C[C@H]1C` [Compound 233, 1-((2R,5S)-4-(6-chloro-7-(1,6-dimethyl-1H-indazol-7-yl)-2-(3-(dimethylamino)prop-1-ynyl)-8-fluoroquinazolin-4-yl)-2,5-dimethylpiperazin-1-yl)prop-2-en-1-one] was run?
**A.** +++ (+++ indicates binding activity greater than 80%)

**Q.** `C=CC(=O)N1C[C@H](C)N(c2nc(OC[C@@H]3CCCN3C(C)C)nc3c(F)c(-c4c(C)ccc5[nH]nc(C6CC6)c45)c(Cl)cc23)C[C@H]1C` [Compound 237, 1-((2R,5S)-4-(6-chloro-7-(3-cyclopropyl-5-methyl-1H-indazol-4-yl)-8-fluoro-2-(((S)-1-isopropylpyrrolidin-2-yl)methoxy)quinazolin-4-yl)-2,5-dimethylpiperazin-1-yl)prop-2-en-1-one] was tested. Which Binding % did it give?
**A.** ++ (++ indicates binding activity from 50 to 80%)

**Q.** With `C=CC(=O)N1C[C@H](C)N(c2nc(OC[C@@H]3CCCN3C(C)C)nc3c(F)c(-c4c(C)ccc5cnn(C)c45)c(Cl)cc23)C[C@H]1C` [Compound 238, 1-((2R,5S)-4-(6-chloro-7-(1,6-dimethyl-1H-indazol-7-yl)-8-fluoro-2-(((S)-1-isopropylpyrrolidin-2-yl)methoxy)quinazolin-4-yl)-2,5-dimethylpiperazin-1-yl)prop-2-en-1-one] as the compound, how does the Binding % read?
**A.** ++ (++ indicates binding activity from 50 to 80%)

**Q.** `C=CC(=O)N1C[C@H](C)N(c2nc(OC[C@@H]3CCCN3CC3CC3)nc3c(F)c(-c4c(C)ccc5cnn(C)c45)c(Cl)cc23)C[C@H]1C` [Compound 239, 1-((2R,5S)-4-(6-chloro-2-(((S)-1-(cyclopropylmeth-yl)pyrrolidin-2-yl)methoxy)-7-(1,6-dimethyl-1H-indazol-7-yl)-8-fluoroquinazolin-4-yl)-2,5-dimethylpiperazin-1-yl)prop-2-en-1-one] was tested. Which Binding % did it give?
**A.** +++ (+++ indicates binding activity greater than 80%)

**Q.** For `C=CC(=O)N1C[C@H](C)N(c2nc(C#CCN(C)C)nc3c(F)c(-c4c(C)ccc5[nH]nc(C6CC6)c45)c(Cl)cc23)C[C@H]1C` [Compound 240, 1-((2R,5S)-4-(6-chloro-7-(3-cyclopropyl-5-methyl-1H-indazol-4-yl)-2-(3-(dimethylamino)prop-1-ylnyl)-8-fluoroquinazolin-4-yl)-2,5-dimethylpiperazin-1-yl)prop-2-en-1-one], which Binding % is on record?
**A.** + (+ indicates binding activity greater than 0% and up to 50%)
